Assay results from patent publication US8519154B2, “Method for treatment of bronchial asthma” (Council of Scientific & Industrial Research, priority 2011, dated 2013).

Key:
mice [1] = assay: Pentobarbitone induced sleeping time; type: in vivo; settings: pentobarbitone 50 mg/kg (i.p) alone
Experimental: Compound I was administered to mice perorally. […] were administered with sodium pentobarbitone (50 mg/kg, ip). Sleeping time (No righting reflex) (in min) was determined for the control (untreated) and D8 treated animals [Montilla, M P., Cabo, J., Navarro, M C., Risco, S., Jimmenez R S., Aneires, J., The protective and curative action of Withania frutescens leaf extract against CCl4-induced hepatotoxicity. Phytother. Res. 4 (1990) 212-215].

mice [2] = assay: Electric shock induced convulsions; type: in vivo, Swiss mice
Experimental: Convulsion were induced by a single electroshock (50 Hz in frequency, 0.5 ms pulse width, 50 mA current for 0.3 s) applied through bi-polar electrodes attached to the ear pinna on both side using a pulse generator (Ugo Basile, Italy). The convulsive activity (determined by loss of tonic extensor seizure) was recorded in control (untreated) and Compound I were treated (before electro-shock application) animals [Achliya, G S, Wadodkar, S G, Darle, A K., Evaluation of CNS activity of Bramhi Ghrita. Indian J. Pharmacol. 37 (2005) 33-36].
Anti-convulsant activity was measured by electric shock induced seizure. Five Swiss mice were used for one dose of drug. Convulsion were induced by a single electroshock (50 Hz in frequency, 0.5 ms pulse width, 50 mA current for 0.3 s) applied through bi-polar electrodes attached to the ear pinna on both side by a pulse generator (Ugo Basile, Italy) Test drug were administered orally 60 min before electroshock application, and convulsive activity was determined by loss of tonic extensor seizure.

PDE-4 = assay: Phosphodiesterase 4 assay, [3H]cAMP SPA enzyme assay, enzyme preparation from rat heart; type: biochemical
Experimental: For phosphodiesterase (PDE-4) assay, enzyme preparations were performed from rat heart (Ko et al 2004, Biochemical Pharmacology 68:2087-2094). Heart was excised from anesthetized rat and transfer into normal saline solution. Heart weighing 687 mg was taken and homogenized in 2.5 volumes of homogenization buffer containing 20 mM Tris-Cl, 50 mM NaCl, 2 mM EDTA, 0.1 mM PMSF, […], protease inhibitors 1 μg/μl. The homogenate was centrifuged at 500×g for 5 minute at 4° C. Then sup was taken for further centrifuged at 40,000×g for 30 minute (ultra centrifugation). After centrifugation supernatant was collected for phosphodiesterase assay. Protein concentration was estimated and for each assay, 2.5 μg protein (PDE enzyme preparation) was used. All compounds tested for PDE 4 activity were dissolved in DMSO.
Phosphodiesterase 4 assay: Phosphodiesterase 4 assay was conducted with [^3H] cAMP SPA enzyme assay (GE Amersham, UK) using 2.5 μg enzyme preparation for each well. Into each well 60 μl water, 10 μl assay buffer supplied with the kit, 10 μl compound (inhibitor), 10 μl PDE enzyme or homogenizing buffer (blank) and […] radiolabel led cAMP ([^3H]cAMP, GE Amersham, UK) were added. To check activity of the enzyme without inhibitor (compound) 10 μl DMSO was added in place of inhibitor to a separate well. The reaction mixtures were incubated for […] at 30° C. The reaction was stopped by adding 50 μl SPA bead supplied with the kit. It was then mixed well and allowed to stand at room temperature for 20 min. Breakdown of cAMP in each tube was monitored by β counter. The reading in each tube was obtained in counts per minute (CPM). The reading of the blank tube (without enzyme) was subtracted from each tube to normalize the counts. The enzyme activity was calculated by considering the CPM reading without any inhibitor (compound) as 100.

CCCC(C)C1(CC)C(=O)NC(=O)NC1=O (centres unmarked) [Pentobarbitone]
Sleeping Time (Minutes ± SEM) (mice [1]): 75.6 ± 9.4 min

CCC1(c2ccccc2)C(=O)NC(=O)NC1=O [Phenobarbitone, reference compound]
Convulsions Clonic (mice [2]; 30 mg/kg p.o.): 0/5 | Convulsions Tonic (mice [2]; 30 mg/kg p.o.): 0/5 | Mortality (mice [2]; 30 mg/kg p.o.): 0/5 | anti-convulsant activity (mice [2]; positive control): significant anti-convulsant activity

COc1cc(COC(C)=O)cc2c1[nH]c1ccccc12 [V]
% of Inhibition (PDE-4; 0.1 μg/ml): 0% | % of Inhibition (PDE-4; 1 μg/ml): 11.80% | % of Inhibition (PDE-4; 10 μg/ml): 44.2%
